# Test results from patent US5411943A, “Hepatoma treatment with somatostatin analogs” (Biomeasure, Inc., priority 1992, dated 1995).
# Legend:
# [1] = Body weight change (systemic toxicity) in the subcutaneous assay; type: in vivo, rat; conditions: for Final Body Weight/Initial Body Weight ratio: q.d. 0-15 (control 1.15)
# Experimental: In this assay, 20 male Buffalo strain rats were implanted s.c., right flank, with a 2 mm^3 mince of the M5123 hepatoma in the a.m. of day zero. The animals were individually identified and then randomized 10 rats in the control and 5 rats per test group. An somatostatin analog used in the invention, H-D-β-Nal-Cys-Tyr-D-Trp-Lys-Val-Cys-Thr-NH2 (code name: BIM-23014), was administered b.i.d. Monday through Friday, and as a single total daily dose on Saturday and Sunday. Tumor sizes were determined with Vernier calipers twice weekly and size calculated as the average of two diameters (length+width/2) mm.
# Since neoplasms maintain autonomous growth by autocrine and paracrine growth factors, the importance of attaining therapeutic concentrations of an antigrowth factor such as BIM-23014 at the tumor site is emphasized in this study. […] Control Final Body Weight/Initial Body Weight ratio was 1.15, as compared to 1.06 for group 2 and 1.12 for group 3.
# [2] = tested on: M5123 hepatoma; test: Subrenal capsule assay (SRCA), M5123 rat hepatoma xenografts in athymic female mice; type: in vivo, mouse; conditions: s.c., b.i.d., q.d. 1-9; for Change in Tumor Size between day 0 and day 10: mean ± s.e.m.
# Source text: (§1) The M5123 hepatoma cells, obtained from Dr. H. P. Morris at the National Cancer Institute, were induced in the Buffalo strain of rats by ingestion of N-(2-fluorenylphthalamic acid) and established in serial transplantation. Implantation of the M5123 hepatoma cells in an immunodeficient athymic mouse or Buffalo strain rat reproducibly results in a progressively growing, lethal tumor.
# (§2) To determine the growth inhibitory effect of bombesin analogs on hepatoma cells, two in vivo assay systems, the subcutaneous tumor assay in the syngeneic Buffalo strain rat and the subrenal capsule assay using the immunodeficient athymic nude mouse were employed.
# SRCA was designed as a rapid in vivo method for testing chemotherapeutic agents against tumor xenografts prepared from solid malignancies. As an antitumor screening procedure, tumors, both human and murine, can be tested as xenografts in athymic female mice. For detailed description of this assay, see Bogden, A. E. et al. A rapid screening method for testing chemotherapeutic agents against human tumor xenografts. In: Proc. Symp. Use of Athymic (Nude) Mice in Cancer Research, p. 231, Edited by Houchens et al., Gustav Fisher, N.Y. (1978).
# Further, an in situ determination of tumor xenograft size at time of implantation and again at termination of the assay, permits use of the very simple parameter of change in tumor size for evaluating tumor sensitivity to the analog. Since the initial measurement provides each xenograft with its own baseline for evaluating drug effects, one can measure tumor response to drugs in terms of progression, stabilization, partial remission and complete remission, which are parameters that have clinical relevance.
# In this assay, xenografts prepared from the transplantation-established M5123 hepatoma were first implanted in immunodeficient athymic female mice, followed by treatment with BIM-23014, in assays of 10-day duration. Thirty two athymic female mice were implanted under the renal capsule with 1 mm cubed grafts of the M5123 rat hepatoma on day zero. Treatment with the analog was initiated on day one at 500, 250 and 50 μg per injection, s.c., b.i.d., on a q.d. 1-9 schedule. On day 10, the mice were sacrificed, the kidney was removed and the size of the tumor was measured to determine changes in tumor size between day 0 and day 10.
# More specifically, the size of the tumor was measured in situ by means of a stereoscope, which was fitted with an ocular micrometer calibrated in ocular units (OMU, 10 OMU=1 mm). For each tumor, two perpendicular diameters were measured and the difference in mean tumor diameter over the 10-day period was calculated.
# [3] = tested on: M5123 hepatoma; test: Subcutaneous tumor assay, M5123 hepatoma implanted s.c. in Buffalo strain rats; type: in vivo, rat; conditions: for Final Tumor Size Day 15 / Percent Test/Control: 500 μg analog/inj.; for Final Tumor Size Day 15: mean ± S.D.; for Percent Test/Control: day 15
# Source text: as §1, §2
# In the subcutaneous assay, tumor grafts are implanted subcutaneously and treatment can be initiated at any selected time after the implantation.
# In this assay, 20 male Buffalo strain rats were implanted s.c., right flank, with a 2 mm^3 mince of the M5123 hepatoma in the a.m. of day zero. The animals were individually identified and then randomized 10 rats in the control and 5 rats per test group. […] Tumor sizes were determined with Vernier calipers twice weekly and size calculated as the average of two diameters (length+width/2) mm.
smiles,measurement,setting,value
"CC(C)[C@@H]1NC(=O)[C@H](CCCCN)NC(=O)[C@@H](Cc2c[nH]c3ccccc23)NC(=O)[C@H](Cc2ccc(O)cc2)NC(=O)[C@@H](NC(=O)[C@H](N)Cc2ccc3ccccc3c2)CSSC[C@@H](C(=O)N[C@H](C(N)=O)[C@@H](C)O)NC1=O [BIM-23014, H-D-β-Nal-Cys-Tyr-D-Trp-Lys-Val-Cys-Thr-NH2]",Systemic toxic effects from treatment as indicated by body weight loss (in words),"[1]; 500 μg/inj., b.i.d., q.d. 0-15",no evidence of systemic toxic effects
same,Final Body Weight/Initial Body Weight ratio,"[1]; group 2: 500 μg/inj., s.c., b.i.d.",1.06
same,Final Body Weight/Initial Body Weight ratio,"[1]; group 3: 500 μg/inj., s.c. infusion b.i.d.",1.12
same,% Test/Control,[2]; 50 μg analog/inj.,93%
same,Change in Tumor Size between day 0 and day 10,[2]; 50 μg analog/inj.,37.00 ± 1.80 omu
same,Inhibition (antitumor activity),[2]; 50 μg,7%
same,% Test/Control,[2]; 250 μg analog/inj.,77%
same,Change in Tumor Size between day 0 and day 10,[2]; 250 μg analog/inj.,30.56 ± 3.61 omu
same,Reduction in the growth of the tumor,[2]; 250 μg/injection,about 25%
same,% Test/Control,[2]; 500 μg analog/inj.,84%
same,Change in Tumor Size between day 0 and day 10,[2]; 500 μg analog/inj.,33.38 ± 2.19 omu
same,Inhibition (antitumor activity),[2]; 500 μg,16%
same,Final Tumor Size Day 15,"[3]; s.c. infusion (perilesional) b.i.d., q.d. 0-15",10.2 ± 5.6 mm
same,Percent Test/Control,"[3]; s.c. infusion b.i.d., q.d. 0-15",62%
same,Final Tumor Size Day 15,"[3]; s.c., b.i.d., q.d. 0-15 (flank opposite from tumor)",16.8 ± 2.4 mm
same,Percent Test/Control,"[3]; s.c., b.i.d., q.d. 0-15",102%
same,Tumor inhibitory effect (in words),"[3]; s.c. on the flank opposite from the tumor, 500 μg/inj.",no tumor inhibitory effects
same,Growth of the M5123 hepatoma (in words),"[3]; s.c. perilesional infusion, 500 μg/inj., p<0.01",significantly inhibited
